Entries after “also recorded” stand apart in the source; their conditions may differ.
Tests used:
human osteoclasts = experiment: Osteoclast activity assay (resorption index CTX/TRACP 5b); type: cell-based
Protocol: In the second part, the culture medium of human osteoclasts was replaced by new medium at day 7, and the formed mature osteoclasts were cultured for an additional 3 days, allowing them to resorb bone. Compound 1 was added into the culture medium at day 7. […] C-terminal cross-linked telopeptides of type I collagen (CTX) were measured in the culture medium collected at day 10 to quantitate bone resorption during days 7-10. […] was measured at day 7 to quantitate osteoclast number before Compound 1 was added. The CTX values were divided by the […] values, resulting as a resorption index that indicates mean osteoclast activity. […] The objective of this study was to investigate the effects of Compound 1 selected by the Sponsor on differentiation and activity of human osteoclasts and mouse osteoblasts in vitro. The effects on osteoclasts were studied using a model where bone marrow-derived human osteoclast precursor cells are cultured on bovine bone slices for 7 days in conditions favouring osteoclast differentiation, and allowed to differentiate into bone-resorbing osteoclasts. After completion of osteoclast differentiation at day 7, the culture medium was removed and new culture medium favouring osteoclast activity was added into the wells. The mature osteoclasts were then cultured for an additional 3 days, allowing them to resorb bone. In the osteoclast differentiation assay, the test compounds and a reference inhibitor osteoprotegerin (OPG) were added into cultures at day 0. In the osteoclast activity assay, the test compounds and a reference inhibitor E64 were added into cultures at day 7. Seven concentrations in 8 replicates were tested in both assays. Tartrate-resistant acid phosphatase 5b activity ([…]) was measured from the culture medium collected at day 7 as an index of the number of osteoclasts formed in each well during the differentiation period. C-terminal cross-linked telopeptides of type I collagen (CTX) was measured from the culture medium collected at day 10 to quantitate bone resorption during days 7-10. A human osteoclast culture system was developed for use in this study where CD34+ osteoclast precursor cells derived from human bone marrow (Poietics® Human Osteoclast Precursors, Lonza, Walkersville, USA) are cultured on bovine bone slices in the presence of appropriate growth factors, including M-CSF and RANK-ligand ([…] et al. 2009). The cells are first allowed to differentiate into mature bone-resorbing osteoclasts, and the formed osteoclasts are then allowed to resorb bone. The test and reference compounds are added into the cell cultures at the beginning of the differentiation and/or the resorption period, and their effects on the differentiation and/or resorbing activity of osteoclasts are determined. Secreted […] is determined from the culture medium after the differentiation period using a commercially available method (BoneTRAPÒ, IDS Ltd, Boldon, UK). Secreted […] describes accurately the number of osteoclasts formed in each well during the differentiation period. CTX is determined from the culture medium after the resorption period using a commercially available method (CrossLapsÒ for cultures, IDS Ltd, Boldon, UK). CTX describes accurately the amount of bone collagen degradation products released into the culture medium in each well during the resorption period. […] In this study, human bone marrow-derived CD34+ stem cells (10000 cells/well) were suspended in culture medium and allowed to attach to bovine bone slices in 96-well tissue culture plates. The culture medium (containing 10% FBS, OCP BulletKit® Lonza, Walkersville, USA) was supplemented with appropriate amounts of important growth factors favoring osteoclast differentiation and activity, including M-CSF (33 ng/ml, OCP BulletKit® Lonza, Walkersville, USA) and RANK-ligand (66 ng/ml, OCP BulletKit® Lonza, Walkersville, USA) in 200 μl of medium. The cells were incubated in a CO2 incubator in humidified atmosphere of 95% air and 5% carbon dioxide at 37° C. […]

[1] = system: KS483 mouse osteoprogenitor cells; experiment: Osteoblast differentiation assay (cellular ALP activity at day 8); type: cell-based
Protocol: In the third part, KS483 mouse osteoprogenitor cells were cultured for 8 days, after which the formed mature osteoblasts were quantitated by measuring the amount of intracellular alkaline phosphatase (ALP) activity. […] The effects on osteoblasts were studied using KS483 mouse osteoprogenitor cells that can be induced to differentiate into bone-forming osteoblasts. […] In the osteoblast differentiation assay, the cells were cultured for 8 days, after which the formed mature osteoblasts were quantitated by measuring the amount of intracellular alkaline phosphatase (ALP) activity. […] A culture system was established that can be used as an in vitro model for studying the effects of anabolic and estrogen-like compounds on osteoblast differentiation and activity. In this culture system mouse KS483 cells first proliferate and then differentiate into osteoblasts capable of forming mineralized bone nodules in the presence of ascorbic acid and ß-glycerophosphate (Fagerlund et al. 2009). The test and reference compounds are added into the cell cultures concomitantly with the medium change, and their effects on the differentiation and activity of osteoblasts are determined. Cellular ALP, a marker of osteoblast differentiation, is determined from the cell lysates as described earlier (Lowry et al. 1954). Secreted PINP, a marker of organic bone matrix formation, is determined from the culture medium using a commercially available method (Rat/Mouse PINP EIA, IDS Ltd, Boldon, UK). Calcium deposition, an index of inorganic bone matrix formation, is measured using a commercially available calcium assay (Roche Diagnostics). Mouse KS483 cells were cultured in T-75 tissue culture flasks in aMEM supplemented with 10% charcoal-stripped fetal bovine serum until 80-90% confluence. The cells were incubated in a CO2 incubator in humidified atmosphere of 95% air and 5% carbon dioxide at 37° C. After reaching 80-90% confluence, subcultures were prepared. Cells were removed from the flasks with trypsin treatment and counted. For induction of the maturation of osteoblasts and bone formation, the immature osteoblastic cells were plated in type I collagen-coated 96-well plates. The cells were cultured for 8 days with a supplement of ascorbic acid ([…]), and half of the media was changed every 3-4 days. The test compound and control substance (E2) were added in the beginning of the culture period and when the medium was changed. The cultures were stopped at day 8 by removing the culture media from the wells, and cell lysates were prepared. Cellular ALP activity and total protein content (Protein Assay, Bio-Rad Laboratories Inc, CA, USA) were quantitated by using VICTOR2™ Multilabel Counter (PerkinElmer, Waltham, Mass., USA).

[2] = patients with metastatic castration resistant prostate cancer, regardless of prior bisphosphonates; cited from earlier work

COc1cc2nccc(Oc3ccc(NC(=O)C4(C(=O)Nc5ccc(F)cc5)CC4)cc3)c2cc1OC [Compound 1, N-(4-{[6,7-bis(methyloxy)quinolin-4-yl]oxy}phenyl)-N′-(4-fluorophenyl)cyclopropane-1,1-dicarboxamide]
activity at 0.004 µM (human osteoclasts; Homo sapiens, Osteoclast, 0.004 μM Compound 1, read-out: CTX at Day 10 and TRACP 5b Activity at Day 7 (CTX/TRACP 5b), Percent Activity (%) Compared to BL): 84% | activity at 0.012 µM (human osteoclasts; Homo sapiens, Osteoclast, 0.012 μM Compound 1, read-out: CTX at Day 10 and TRACP 5b Activity at Day 7 (CTX/TRACP 5b), Percent Activity (%) Compared to BL): 104% | activity at 0.037 µM (human osteoclasts; Homo sapiens, Osteoclast, 0.037 μM Compound 1, read-out: CTX at Day 10 and TRACP 5b Activity at Day 7 (CTX/TRACP 5b), Percent Activity (%) Compared to BL): 115% | activity at 0.11 µM (human osteoclasts; Homo sapiens, Osteoclast, 0.11 μM Compound 1, read-out: CTX at Day 10 and TRACP 5b Activity at Day 7 (CTX/TRACP 5b), Percent Activity (%) Compared to BL): 107% | activity at 0.33 µM (human osteoclasts; Homo sapiens, Osteoclast, 0.33 μM Compound 1, read-out: CTX at Day 10 and TRACP 5b Activity at Day 7 (CTX/TRACP 5b), Percent Activity (%) Compared to BL): 102% | activity at 1 µM (human osteoclasts; Homo sapiens, Osteoclast, 1.0 μM Compound 1, read-out: CTX at Day 10 and TRACP 5b Activity at Day 7 (CTX/TRACP 5b), Percent Activity (%) Compared to BL): 111% | activity at 3 µM (human osteoclasts; Homo sapiens, Osteoclast, 3.0 μM Compound 1, read-out: CTX at Day 10 and TRACP 5b Activity at Day 7 (CTX/TRACP 5b), Percent Activity (%) Compared to BL): 85% | effect on osteoclast resorption activity (human osteoclasts; tested concentrations 0.004-3.0 μM): no effects | ALP values / osteoblast differentiation ([1]; 3.0 μM): decreased; also recorded: inhibitory effects | ALP values / osteoblast differentiation ([1]; 0.012, 0.037, 0.11, 0.33 and 1.0 μM): increased; also recorded: dose-dependent stimulation | activity at 0.004 µM ([1]; Mus musculus, Osteoblast, 192 h, 0.004 μM Compound 1, read-out: ALP Activity at Day 8, Percent Activity (%) Compared to BL): 109% | activity at 0.012 µM ([1]; Mus musculus, Osteoblast, 192 h, 0.012 μM Compound 1, read-out: ALP Activity at Day 8, Percent Activity (%) Compared to BL): 113% | activity at 0.037 µM ([1]; Mus musculus, Osteoblast, 192 h, 0.037 μM Compound 1, read-out: ALP Activity at Day 8, Percent Activity (%) Compared to BL): 134% | activity at 0.11 µM ([1]; Mus musculus, Osteoblast, 192 h, 0.11 μM Compound 1, read-out: ALP Activity at Day 8, Percent Activity (%) Compared to BL): 181% | activity at 0.33 µM ([1]; Mus musculus, Osteoblast, 192 h, 0.33 μM Compound 1, read-out: ALP Activity at Day 8, Percent Activity (%) Compared to BL): 166% | activity at 1 µM ([1]; Mus musculus, Osteoblast, 192 h, 1.0 μM Compound 1, read-out: ALP Activity at Day 8, Percent Activity (%) Compared to BL): 117% | activity at 3 µM ([1]; Mus musculus, Osteoblast, 192 h, 3.0 μM Compound 1, read-out: ALP Activity at Day 8, Percent Activity (%) Compared to BL): 57% | plasma CTx [2]: decrease

From US10166225B2, “Method for treating osteoporosis” (Exelixis, Inc., priority 2011, dated 2019)
